Test results from paper PMC8296985, “A Covalent Calmodulin Inhibitor as a Tool to Study Cellular Mechanisms of K-Ras-Driven Stemness” (Frontiers in Cell and Developmental Biology, 2021).
Like-named read-outs stand apart in the source and are kept apart here.

Columns and labels:
Type in all cases: cell-based
K-RasG12V/CaM = biological target: T1, K-RasG12V/CaM (Homo sapiens, UniProt P0DP23); assay: Rluc8-K-RasG12V/GFP2-CaM interaction BRET in HEK293-EBNA cells; details: for IC50: 24-h exposure, A/D plasmid ratio 9/1, read-out: IC50 of Rluc8-K-RasG12V/GFP2-CaM BRET signal
T1 construct: expressed in transfected cells; host or cells: HEK293-EBNA
Procedure: BRET assays were essentially performed as described by others ([Lavoie et al., 2013]; [Bery et al., 2018]). About 100,00–150,000 HEK293-EBNA ([Meissner et al., 2001]) cells were seeded per well of a 12-well plate in 1 ml of DMEM containing 10% FBS and 2 mM L-glutamine and were grown for 24 h. Next day, Rluc8-tagged donor and GFP2-tagged acceptor constructs were transfected into cells using a jetPRIME transfection reagent (cat. no. 114-75, Polyplus). Each well was transfected with about 1 μg of plasmid DNA using 3 μl of the jetPRIME reagent. For BRET donor saturation titration experiments, the concentration of donor plasmid (25 ng) was kept constant, and the concentration of acceptor plasmid was increased from 0 to 500 ng for RasG12V BRET pairs and 0–1,000 ng for K-Ras/CaM BRET pairs. The empty pcDNA3.1(-) plasmid was used to top-up the total DNA load per transfection. After 24 h of transfection, cells were treated with compounds or vehicle control (DMSO 0.2% v/v in a growth medium) at the specified concentration for 24 h or the stipulated time period in case of the time-course experiments. The cells from one well of a 12-well plate were collected, washed, and re-plated in PBS (cat. no. 14190-094, Gibco, Thermo Fisher Scientific) on flat bottom, white 96-well plates (cat. no. 236108, Nunc, Thermo Fisher Scientific) as four technical replicates containing 90 μl of cell suspension per well. Then fluorescence intensity followed by BRET readings were carried out on a Clariostar (BMG Labtech) plate reader at 25°C. The fluorescence intensity (RFU) of GFP2 was measured with excitation at 405 ± 10 nm and emission 515 ± 10 nm; it is proportional to the acceptor concentration [acceptor]. BRET readings were taken well by well by adding 10 μl of 100 μM coelenterazine 400a (cat. no. C-320, GoldBio), the Rluc8 substrate to each well (final concentration of 10 μM) using the injector present in the plate reader. Luminescence emission intensities were simultaneously recorded at 410 ± 40 nm (RLU, proportional to [donor]) and 515 ± 15 nm (BRET signal).
The raw BRET ratio was calculated as the BRET signal measured at 515 nm divided by the emission signal measured at 410 nm (RLU). The BRET ratio was obtained by subtracting the raw BRET ratio by a background BRET signal measured for cells expressing only the donor ([Bacart et al., 2008]) as indicated in the formula below:
For BRET donor saturation titration experiments, the BRET ratio was plotted against the [acceptor]/[donor] ratio. Technical repeat data points were averaged, and data points from all biological repeats were collected into one graph for subsequent fitting. The BRET ratio vs. relative expression data were fitted using a binding saturation equation in the Prism (GraphPad) software to obtain BRETmax and BRET50 using the equation y=BRETmax×x/BRET50+x , where x is the relative expression and y is the BRET ratio. BRETmax represents the maximum saturation BRET signal and depends on the structural parameters (distance, orientation) of the BRET complex. BRET50 corresponds to the ratio of the acceptor construct over the donor construct required to attain 50% of the maximum BRET signal and is a measure of the effective relative affinity between the interacting BRET pair ([Marullo and Bouvier, 2007]).

MDA-MB-231 = assay: 3D spheroid (tumorosphere) formation assay, low attachment, serum-free, alamarBlue; details: for IC50: Homo sapiens; for KRAS/HRAS mutant cell line DSS3 ratio: MDA-MB-231 vs Hs 578T 3D spheroid formation, 0.6–40 μM, numbers above bars Fig. 1A,B
Procedure: (§1) 3D spheroid formation assays were performed in 96-well low-attachment, suspension culture plates (cat. no. 655185, Cellstar, Greiner Bio-One) under serum-free condition. About 1,000 (MDA-MB-231, NCI-H358, and MIA PaCa-2) or 2,500 (Hs 578T) cells per well were seeded in 50 μl of either an RPMI medium (cat. no. 52400-025, Gibco, Thermo Fisher Scientific) (MDA-MB-231, A375, and NCI-H358) or DMEM (cat. no. 41965-039, Gibco, Thermo Fisher Scientific) (Hs 578T and MIA PaCa-2), containing 0.5% MethoCult (cat. no. SF H4636, Stemcell technologies), 1x B27 (cat. no. 17504044, Gibco, Thermo Fisher Scientific), 25 ng/ml EGF (cat. no. E9644, Sigma-Aldrich), and 25 ng/ml FGF (cat. no. RP-8628, Thermo Fisher Scientific). Cells were cultured for 3 days and then treated with compounds or vehicle control (DMSO 0.1% v/v in growth medium) for another 3 days. The cells were supplemented with a fresh growth medium on the third day together with the drug treatment. For knockdown experiments, cells were seeded in 12-well plates and treated with either 50 nM scrambled siRNA (cat. no. 1022076, QIAGEN) or indicated concentrations of siRNAs. Next day, cells were collected by trypsinization and re-plated into 96-well plates for 3D spheroid suspension culture.
(§2) Spheroid formation efficiency was analyzed by an alamarBlue assay reagent (cat. no. DAL1100, Thermo Fisher Scientific). A 10% final volume of the alamarBlue reagent was added to each well of the plate and incubated for 4 h at 37°C. Then the fluorescence intensity was measured using the FLUOstar OPTIMA plate reader (BMG Labtech, Germany) with an excitation wavelength of 560 ± 5 nm and an emission wavelength of 590 ± 5 nm.
(§3) To quantitatively profile the drug sensitivity with a more robust parameter than the IC50 or EC50 values, the drug sensitivity score (DSS) analysis was employed. DSS values are essentially normalized area under the curve (AUC) measures of dose-response inhibition data ([Yadav et al., 2014]). Drug response data files (in Excel) ready for online analysis were prepared according to the example file obtained from the DSS pipeline website, called Breeze^1 ([Potdar et al., 2020]). Either raw fluorescence intensity measurements or normalized % inhibition data (for BRET assay analysis) were uploaded.
(§4) DSS3 was employed to emphasize drugs that obtain their response area over a relatively wide dose window, as compared to drugs that show increased response only at the higher end of the concentration range. After logistic fitting of the dose-response inhibition data, the area under the curve (AUC) was determined as the exact solution. A 10% minimal activity threshold (t) was set. The maximum (Cmax) and minimum (Cmin) concentrations were used for screening of the inhibitors, with Cmax = x2 and x1 concentration with minimal activity t.

Hs 578T = assay: as above; details: Homo sapiens
Procedure: as §1, §2, §3, §4

[1] = 72 h, MDA-MB-231 (K-RasG13D) 3D tumorosphere, 3 days treatment, read-out: IC50
[2] = MDA-MB-231 3D tumorosphere, log scale, read-out: logIC50 ± SD (converted)
[3] = 72 h, Hs 578T (H-RasG12D) 3D tumorosphere, 3 days treatment, read-out: IC50
[4] = Hs 578T 3D tumorosphere, log scale, read-out: logIC50 ± SD (converted)

SMILES	IC50 (K-RasG12V/CaM)	IC50 (MDA-MB-231; [1])	IC50 (MDA-MB-231; [2])	KRAS/HRAS mutant cell line DSS3 ratio (MDA-MB-231)	IC50 (Hs 578T; [3])	IC50 (Hs 578T; [4])	effect on Rluc8-K-RasG12V/GFP2-CaM BRET signal, single concentration (K-RasG12V/CaM; calmidazolium 20 μM, prostratin 20 μM, OphA 5 μM)
CC(C)c1ccc2cc(C(F)(F)F)c(=O)c3c(N4CCCCC4)c(C=O)c(c1)c23 [Compound 1]	31 ± 2 µM	12 µM	12 µM	4.1	22.5 µM	22.4 µM	–
CC(C)=C[C@H]1C[C@H](C)[C@]2(CC[C@]3(C)C[C@H]4[C@H](C(=O)C[C@@]4(C)O)/C(C=O)=C\C[C@H]32)O1 [OphA, Ophiobolin A, reference compound]	12 ± 2 µM	0.3 µM	0.288 µM	3.1	1.8 µM	1.78 µM	significantly reduced the BRET signal
